The target in the experiment is T1, human β3 adrenergic receptor (Homo sapiens, UniProt P13945).
T1 construct: expressed in transfected cells
T1 sequence (P13945 whole entry): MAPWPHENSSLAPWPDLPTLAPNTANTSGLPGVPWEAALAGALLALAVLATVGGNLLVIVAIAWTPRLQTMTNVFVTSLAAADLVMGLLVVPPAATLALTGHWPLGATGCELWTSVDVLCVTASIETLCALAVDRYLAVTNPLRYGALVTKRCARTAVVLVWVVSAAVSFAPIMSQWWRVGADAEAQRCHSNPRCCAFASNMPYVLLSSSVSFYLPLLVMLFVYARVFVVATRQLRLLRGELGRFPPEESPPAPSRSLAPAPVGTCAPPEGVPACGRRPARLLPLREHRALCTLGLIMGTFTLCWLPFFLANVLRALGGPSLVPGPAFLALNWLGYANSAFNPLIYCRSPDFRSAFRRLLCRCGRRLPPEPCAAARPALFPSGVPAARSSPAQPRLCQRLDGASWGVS
As to the kind of experiment: whole cell receptor coupled c-AMP assay (Emax relative to isoproterenol). It counts as cell-based. The following applies: % intrinsic activity: maximal response divided by isoproterenol maximal response times 100; transfected CHO cells; average of at least 3 runs. The source says: The genes encoding the human β1-adrenergic receptor (Frielle et al., Proc. Natl. Acad. Sci., 84:7920–7924, 1987), the human β2-adrenergic receptor (Kobika et al., Proc. Natl. Acad. Sci., 84:46–50, 1987, Emorine et al., Proc. Natl. Acad. Sci., 84:6995–6999, 1987) and the human β3 adrenergic receptor (Granneman et al., Molecular Pharmacology, 44(2):264–70, 1993) are individually subcloned into a phd expression vector (Grinnell et al., Bio/Technology, 5:1189–1192, 1987) and transfected into the DXB-11 Chinese hamster ovary (CHO) cell line by calcium phosphate precipitation methodology. The stably transfected cells are grown to 95% confluency in 95% Dulbecco's modified Eagles Medium (DMEM), 5% fetal bovine serum and 0.01% proline. Media is removed and the cells are washed with phosphate buffered (pH 7.4) saline (without magnesium and calcium). Cells are then lifted using an enzyme free cell dissociation solution (Specialty Media, Lavallette, N.J.) and pelleted by centrifugation.
Cells from each of the above cell lines are resuspended and added (20,000/well) to a 96-well plate. Cells are incubated at 37° C. with representative compounds of the invention for 20 minutes in buffer (Hank's balanced salt solution, 10 mM HEPES, 0.1% BSA, 1 mM L-ascorbic acid, 0.2% dimethyl sulfoxide, 1 mM 3-isobutyl-1-methylxanthine, pH 7.4). After halting the incubation with quench buffer (50 mM Na Acetate, 0.25% Triton X-100, pH 5.8), the c-AMP level is quantified by scintillation proximity assay (SPA) using a modification of the commercially available c-AMP kit (Amersham, Arlington Heights, Ill.) with rabbit anti-cAMP antibody (ICN Biomedicals, Aurora, Ohio) for the kit.
Sigmoidal dose response curves, from the whole cell receptor coupled c-AMP assay are fit to a four parameter logistic equation using non linear regression: y=(a−d)/(1+(Dose/c)^b)+d where a and d are responses at zero and maximal dose, b is the slope factor and c is the EC50 as previously described (DeLean et al., Am. J. Physiol., 235, E97-E102, 1978). EC50 is assessed as the concentration producing 50% of the maximum response to each agonist.
Isoproterenol is accepted in the art as a non-selective β3 agonist and is widely used as a comparator in evaluating the activity of compounds. See Trends in Pharm. Sci., 15:3, 1994. The % intrinsic activity (Emax) of representative compounds of the invention is assessed relative to isoproterenol by the compound's maximal response divided by the isoproterenol maximal response times 100.
For `C[C@@H](NC[C@H](O)COc1ccccc1-c1cccs1)C(=O)N1CCc2ccccc21` [Example 131], the “Emax (%) ± SEM” value came out at 23.6 ± 1.7%.
The same measure for `CC(C)(Cc1c[nH]c2c(OCC#N)cccc12)NC[C@H](O)COc1ccccc1-c1ccon1` [Example 132]: 53.6 ± 1.4%; for `CC(C)(Cc1c[nH]c2c(OCC#N)cccc12)NC[C@H](O)COc1ccccc1-c1ccon1` [Example 133]: 60.6 ± 2.4%; for `CC(C)(Cc1c[nH]c2c(OCC#N)cccc12)NC[C@H](O)COc1ccccc1-c1cccs1` [Example 137]: 65.5 ± 4.7%.
The same measure for `CC(C)(Cc1c[nH]c2c(C=CC(N)=O)cccc12)NCC(O)COc1ccccc1-c1cccs1` (stereo not shown) [Example 139]: 86.5 ± 5.5%; for `CC(C)(Cc1c[nH]c2c(CCC(N)=O)cccc12)NC[C@H](O)COc1ccccc1-c1cccs1` [Example 140]: 83.5 ± 2.7%; for `CC(C)(Cc1c[nH]c2c(C=CS(C)(=O)=O)cccc12)NCC(O)COc1ccccc1-c1cccs1` (stereo not shown) [Example 141]: 65.0 ± 2.0%.
As for `CC(C)(Cc1c[nH]c2c(CCS(C)(=O)=O)cccc12)NC[C@H](O)COc1ccccc1-c1cccs1` [Example 142], the figure is 82.1 ± 1.4%; as for `CC(C)(Cc1c[nH]c2c(C=CC#N)cccc12)NCC(O)COc1ccccc1-c1cccs1` (stereo not shown) [Example 143], 66.4 ± 8.7%.
Take `CC(C)(Cc1c[nH]c2c(CCC#N)cccc12)NC[C@H](O)COc1ccccc1-c1cccs1` [Example 144]: the “Emax (%) ± SEM” value turned out to be 73.3 ± 5.9%.
`COC(=O)CCc1cccc2c(CC(C)(C)NC[C@H](O)COc3ccccc3-c3cccs3)c[nH]c12` [Example 145]: the “Emax (%) ± SEM” value is 79.3 ± 7.1%.
As for `CC(C)(Cc1c[nH]c2c(C=Cn3cncn3)cccc12)NCC(O)COc1ccccc1-c1cccs1` (stereo not shown) [Example 146], the figure is 47.3 ± 2.3%; as for `C[C@H](Cn1ccc2c(OCC#N)cccc21)NC[C@H](O)COc1ccccc1-c1ccon1` [Example 150], 46.6 ± 1.9%.
As for `C[C@H](Cn1ccc2c(OCC#N)cccc21)NC[C@H](O)COc1ccccc1-c1ccns1` [Example 151], the figure is 52.4 ± 4.3%; as for `C[C@H](Cn1ccc2c(OCC#N)cccc21)NC[C@H](O)COc1ccccc1-c1cccs1` [Example 152], 63.1 ± 4.4%; as for `COC(=O)c1cccc2c1ccn2C[C@@H](C)NC[C@H](O)COc1ccccc1-c1cccs1` [Example 153], 45.2 ± 8.4%.
As for `COC(=O)c1ccc2c(ccn2C[C@@H](C)NC[C@H](O)COc2ccccc2-c2cccs2)c1` [Example 154], the figure is 32.4 ± 8.1%; as for `C[C@H](Cn1ccc2cc(OCC#N)ccc21)NC[C@H](O)COc1ccccc1-c1cccs1` [Example 155], 58.7 ± 13.4%; as for `Cc1cc2c(OCC#N)cccc2n1C[C@@H](C)NC[C@H](O)COc1ccccc1-c1cccs1` [Example 156], 41.9 ± 9.3%.
As to `CC(C)(Cc1c[nH]c2ccccc12)NC[C@H](O)COc1ccccc1-c1cccs1` [Example 157], the “Emax (%) ± SEM” value stood at 51.3 ± 7.8%.
The same measure for `CC(C)(Cc1c[nH]c2cc(F)ccc12)NC[C@H](O)COc1ccccc1-c1cccs1` [Example 158]: 69.6 ± 4.8%; for `CC(C)(Cc1c[nH]c2cc(F)ccc12)NC[C@H](O)COc1ccccc1-c1nccs1` [Example 159]: 53.0 ± 1.8%.
The same measure for `CC(C)(Cc1c[nH]c2c(OCC#N)cccc12)NC[C@H](O)COc1ccccc1-c1nncs1` [Example 160]: 44.3 ± 3.9%; for `C[C@@H](Cc1c[nH]c2c(OCC#N)cccc12)NC[C@H](O)COc1ccccc1-c1nncs1` [Example 161]: 21.7 ± 3.1%.
As for `CC(C)(Cc1c[nH]c2cccc(F)c12)NC[C@H](O)COc1ccccc1-c1cccs1` [Example 162], the figure is 64.2 ± 7.6%; as for `CC(C)(Cc1c[nH]c2ccc(F)cc12)NC[C@H](O)COc1ccccc1-c1cccs1` [Example 163], 57.1 ± 5.8%.
As to `CC(C)(Cc1c[nH]c2ccccc12)NC[C@H](O)COc1ccccc1-c1ccon1` [Example 164], the “Emax (%) ± SEM” value came to 53.9 ± 2.6%.
The same measure for `C[C@H](Cn1ccc2ccccc21)NC[C@H](O)COc1ccccc1-c1ccon1` [Example 165]: 37.1 ± 4.0%.
The same measure for `CC(C)(Cc1c[nH]c2cccc(F)c12)NC[C@H](O)COc1ccccc1-c1ccon1` [Example 166]: 47.8 ± 0.6%; for `CC(C)(Cc1c[nH]c2ccc(F)cc12)NC[C@H](O)COc1ccccc1-c1ccon1` [Example 167]: 40.8 ± 1.3%.
The same measure for `CC(C)(Cc1c[nH]c2cc(OCC#N)ccc12)NC[C@H](O)COc1ccccc1-c1cccs1` [Example 168]: 62.1 ± 3.3%.
In the case of `CC(C)(Cc1c[nH]c2ccc(OCC#N)cc12)NC[C@H](O)COc1ccccc1-c1cccs1` [Example 169], the “Emax (%) ± SEM” value amounted to 51.9 ± 3.4%.
As for `CC(C)(Cc1c[nH]c2c(F)cccc12)NC[C@H](O)COc1ccccc1-c1cccs1` [Example 170], the figure is 71.2 ± 1.2%.
The same measure for `CC(C)(Cc1c[nH]c2c(F)cccc12)NC[C@H](O)COc1ccccc1-c1nccs1` [Example 171]: 56.0 ± 1.5%; for `CC(C)(Cc1c[nH]c2cc(F)ccc12)NC[C@H](O)COc1ccccc1-c1ccon1` [Example 172]: 55.0 ± 1.1%.
As for `CC(C)(Cc1c[nH]c2c(F)cccc12)NC[C@H](O)COc1ccccc1-c1ccon1` [Example 173], the figure is 50.2 ± 1.5%; as for `CC(C)(Cc1c[nH]c2c(C(N)=O)cccc12)NC[C@H](O)COc1ccccc1-c1cccs1` [Example 174], 57.6 ± 0.6%.
As for `CC(C)(Cc1c[nH]c2c(C(N)=O)cccc12)NC[C@H](O)COc1ccccc1-c1ccon1` [Example 175], the “Emax (%) ± SEM” value is given as 41.1 ± 3.5%.
As for `CC(C)(Cc1c[nH]c2c(OCC(=O)NS(C)(=O)=O)cccc12)NC[C@H](O)COc1ccccc1-c1cccs1` [Example 176], the figure is 79.0 ± 2.9%; as for `CC(C)(Cc1c[nH]c2c(OCCNS(C)(=O)=O)cccc12)NC[C@H](O)COc1ccccc1-c1cccs1` [Example 177], 73.8 ± 1.5%.
As for `COC(=O)c1ccc(-c2cccc3c(CC(C)(C)NC[C@H](O)COc4ccccc4-c4cccs4)c[nH]c23)cc1` [Example 178], the figure is 72.5 ± 2.2%.
As for `CC(=O)Nc1ccc(-c2cccc3c(CC(C)(C)NC[C@H](O)COc4ccccc4-c4cccs4)c[nH]c23)cc1` [Example 179], the figure is 71.5 ± 1.1%.
For `COC(=O)c1ccc(-c2cccc3c(CC(C)(C)NC[C@H](O)COc4ccccc4-c4cccs4)c[nH]c23)s1` [Example 181], the “Emax (%) ± SEM” value is listed as 39.6 ± 0.7%.
The same measure for `CC(=O)Nc1ccc(-c2cccc3c(CC(C)(C)NC[C@H](O)COc4ccccc4-c4ccon4)c[nH]c23)cc1` [Example 183]: 47.7 ± 1.6%; for `CC(C)(Cc1c[nH]c2c(C=Cn3ccnc3)cccc12)NC[C@H](O)COc1ccccc1-c1cccs1` [Example 186]: 66.5 ± 0.4%.
As for `CC(C)(Cc1c[nH]c2c(CCc3ccc(C#N)cc3)cccc12)NC[C@H](O)COc1ccccc1-c1cccs1` [Example 187], the figure is 77.9 ± 0.7%.
The same measure for `CC(C)(Cc1c[nH]c2c(C=Cc3cnccn3)cccc12)NC[C@H](O)COc1ccccc1-c1cccs1` [Example 188]: 70.5 ± 3.8%.
For `CC(C)(Cc1c[nH]c2c(C=Cc3ccc(S(N)(=O)=O)cc3)cccc12)NC[C@H](O)COc1ccccc1-c1cccs1` [Example 189], the “Emax (%) ± SEM” value turned out to be 64.5 ± 1.7%.
In the case of `CC(C)(Cc1c[nH]c2cc(C=CC#N)ccc12)NC[C@H](O)COc1ccccc1-c1cccs1` [Example 190], the “Emax (%) ± SEM” value amounted to 69.3 ± 1.3%.
For `CC(C)(Cc1c[nH]c2ccccc12)NC[C@H](O)COc1ccccc1-c1ccc(S(N)(=O)=O)s1` [Example 191], the “Emax (%) ± SEM” value turned out to be 85.6 ± 7.8%.
The same measure for `CC(C)(NC[C@H](O)COc1ccccc1-c1cccs1)C(=O)N1CCc2ccccc21` [Example 192]: 55.6 ± 6.0%; for `CC(C)(NC[C@H](O)COc1ccccc1-c1ccon1)C(=O)N1CCc2ccccc21` [Example 193]: 32.0 ± 5.5%.

The record behind these values is patent US7208505B2, “β3 adrenergic agonists” (Eli Lilly and Company, priority 2001, dated 2007).
